Series [1] in a line: Chemical stability of HNE(alkyne). The series is classed as physicochemical. Particulars: air. The protocol:
(iv) Isolate the pure product via flash chromatography using hexanes: Et20 (4:1 v/v) as eluent (Rf=0.5 in hexanes: Et2O 4:1). […] The purified material should be characterized promptly and during this time may be stored under Ar at room temperature. For long-term storage, HNE(alkyne) should be stored as one-shot aliquots in DMSO at −80° C. and must be used immediately once thawed.

Series [2] has as its system γ-H2AX. Kind of series: T-REX in zebrafish embryos, whole-mount γ-H2AX immunofluorescence. The format is in vivo, zebrafish (Danio rerio). Particulars: 3 h post light exposure. The protocol:
(§1) Fertilized eggs at the 1-2 cell stage from casper zebrafish were injected with mRNA (1.6 mg/ml) into the yolk sack. Immediately after injection, embryos were pooled, and separated into two petri dishes (10 cm) filled with 30 mL 10% Hank's salt solution with methylene blue and penicillin (100 U/mL)/streptomycin (100 μg/ml). To one set was added the HaloTag-targetable photocaged precursor to HNE (Ht-PreHNE, hereafter) (<15 μM) and the other DMSO in the dark. Embryos were maintained at 28° C. in the dark for 28 h then they were washed in 10% Hank's solution with no methylene blue/antibiotic (3 times for 30 min each). Embryos were moved to 6-well plates. Half of the embryos (Ht-preHNE-treated or -untreated) were irradiated with UV light (5 min), and the other half of each set was not irradiated. Embryos were left for 8 h at which point they were euthanized, washed with cold 1×DPBS and dechorionated (and deyolked if protein analysis was to be undertaken).
DDR preconditioning occurs in zebrafish embryos. […] Subsequently, the fish were fixed and γ-H2AX levels were measured using whole-mount immunofluorescence.

A further series addresses T1, PTEN (Homo sapiens, UniProt P60484).
T1 construct: host or cells: HEK-293
Kind of series: InPAkt FRET biosensor assay of PIP3 after PTEN-targeted T-REX. The format is cell-based. The protocol: (ii) Transfect each plate with 1000 ng of Halo-PTEN and 1000 ng of InPAkt reporter plasmid. Transfect with TransIT-2020 following the manufacturer's protocol.
(iv) Treatment of cells with T-REX™ delivery photocaged precursor, photo-uncaging and cell fixing. Treat the cells with photocaged precursor as described in Section 2, Step 39A. The amounts of reagents used should be scaled up for 4×35 mm adherent culture dish.
(v) Irradiate the cells with UV light only for 3 min. After shining light on the sample. Incubate the plates at 37° C. for 10 hours. Longer irradiation time will result in photobleaching of the FRET reporter proteins.
(vi) Imaging and data analysis. […] Blue laser (408 nm) is used for excitation. Record the signals in cyan channel (463-498 nm) and yellow channel (525-620 nm).
(vii) Analyse the images using ImageJ software (NIH). To do this, determine the average cyan and yellow fluorescence intensity for each cell by drawing a free hand circle around the image. Repeat this for each condition such that 150-200 cells were analyzed each time from multiple different frames. Calculate the ratio of mean yellow to mean cyan fluorescence intensity for each condition, then plot these values and analyse the results using prism. To get reliable results, it is important to collect images from at least 150 individual cells per condition.

Series [3] relates to Ube2V2 ubiquitination and cellular Ub pools. Kind of series: Ubiquitination analysis by IP, K63-TUBE pulldown and western blot in HEK293T cells. The note with it: for amount of ubiquitinated-Ube2V2 formed upon targeted-HNEylation: proteasome inhibitor treatment with T-REX. The series is classed as cell-based, human. The protocol: Cells were lysed in 1×RIPA buffer containing in final concentrations 1× Protease inhibitor, 1 mM sodium orthovanadate and 1 mM PMSF, by rapid freeze-thaw (×3). Cell debris was removed and the supernatant was collected after centrifugation at 18,000×g for 20 min at 4° C. Protein concentration was determined using Bradford assay. 30-50 μg of total lysates were subjected to SDS-PAGE and the gel was transferred onto a PVDF membrane at 100 V for 1 h at 4° C. or at 40 V overnight at 4° C. Membrane was blocked with 10% milk and probed with various antibodies at the indicated dilutions (Table 4, above).
HEK 293T cells were seeded in 2×60 cm^2 plates. After the cells reached 60% confluence (˜18-24 h), the old media was replaced with 8 mL of fresh complete media. Cells were transfected with 7.5 μg of the designated Halo clone and 30 μL PEI (1 mg/mL) in 600 μL in Opti-MEM media for 24-36 h after which the cells were treated with 25 μM Ht-PreHNE for 2.5 h. Rinsing and light shining protocol were as described above. Cells were harvested, pooled, washed twice with chilled 1×DPBS and flash frozen. Cell lysis was performed in 100-200 μL per 1.5×10^6 cells of either: lysis buffer [containing in final concentrations 50 mM HEPES (pH 7.6), 150 mM NaCl, 1% Nonidet P-40 and 1× Roche cOmplete, mini, EDTA-free protease inhibitor cocktail] for Flag pull down; or RIPA buffer [containing in final concentrations 50 mM HEPES (pH 7.6), 150 mM NaCl, 1% Nonidet P-40, 0.1% SDS, 0.25% sodium deoxycholate, and 1× Roche cOmplete, mini, EDTA-free protease inhibitor cocktail] for HA pull down, followed by rapid freeze-thaw cycles (×3). Lysate was clarified by centrifugation at 18,000×g for 10 min at 4° C. Total protein concentration was determined using Bradford assay with BSA as standard. The lysate was subsequently diluted to 2 mg/mL with binding buffer containing in final concentrations 50 mM HEPES (pH 7.6), 150 mM NaCl, 1× Roche cOmplete, mini, EDTA-free protease inhibitor cocktail, and 0.1% Tween-20. This diluted lysate was subjected to either 50-100 μL bed volume of ANTI-FLAG® M2 affinity gel (A2220, Sigma) or monoclonal anti-HA-agarose (clone HA-7, A2095, Sigma) that had been pre-equilibrated with the binding buffer above. The sample was incubated with beads for 2-3 h at 4° C. by end-over-end rotation after which time the supernatant was removed post-centrifugation at 1000×g (anti-FLAG pull down) or 5000×g (anti-HA pull down) for 3 min. The beads were washed three times at 4° C. with 500 μL wash buffer containing in final concentrations 50 mM HEPES (pH 7.6), 150 mM NaCl, 1× Roche cOmplete, mini, EDTA-free protease inhibitor cocktail, and 0.1% Tween-20, using end-over-end rotation over 10 min during each wash. The bound protein was eluted by either incubating with 0.15 mg/mL 3× flag peptide for 2 h at 4° C. (anti-Flag pull down) or by boiling the beads at 98° C. for 10 min with 30 μL of 3× Laemmeli dye containing 6% βME (anti-HA pull down). The sample was subjected to SDS-PAGE and transferred to a PVDF membrane for western blot analysis described above.
Cells were grown and transfected as described above. After T-REX™ delivery, cells were harvested and lysed in 100-200 μL (˜1.5×10^6 cells) of lysis buffer [containing in final concentrations 50 mM HEPES (pH 7.6), 300 nM Biotin K63-TUBE, 150 mM NaCl, 5 mM EDTA, 3 mM 1,10-phenanthroline, 5 mM NEM, 20 μM PR-619, 1% Nonidet P-40 and 1× Roche cOmplete, mini, EDTA-free protease inhibitor cocktail] according to manufactures' manual (Biotin K63 TUBE, Lifesensors). Lysate was clarified by centrifugation at 18,000×g for 10 min at 4° C. Total protein concentration was determined using Bradford assay using BSA as standard. […]
A general note: A western blot detects proteins with antibodies after separation by electrophoresis.

The subject of series [4] is γ-H2AX. Kind of series: γ-H2AX immunofluorescence in HEK293T cells. The series is classed as cell-based, human. How it is done:
Cells were grown to 70% confluence in 35 mm glass-bottomed dishes and transfected with HaloTagged plasmids. T-REX™ delivery was performed as mentioned above. […] The fixative was aspirated and the cells washed three times with 1×DPBS with 5-min incubation at room temperature. Blocking and permeabilization was performed in one-step by incubation at 37° C. for 1 h in 1×DPBS containing 3% BSA and 0.2% Triton X-100. Cells were subsequently incubated with primary antibody (1:300, Table 4) in incubation buffer (1% BSA, 0.02% Triton X-100 in 1×DPBS) for 2 h at room temperature. Cells were rinsed 3 times with 1×DPBS with 5 min incubation for each wash and subsequently incubated in dark for 1 h at room temperature with corresponding second antibody (1:1000, Table 4) in incubation buffer. Cells were rinsed 3 times with 1×DPBS with 5 min incubation for each rinse. DAPI (Sigma) was freshly prepared in 1×DPBS from 2 mg/mL wt./v stock solution in water and added to the wells at the final concentration of 0.2 μg/mL. The samples were incubated in dark for 1 min and washed once with 1×DPBS and stored at 4° C. in dark till images were taken using a Zeiss LSM 710 meta confocal fluorescence microscope. Image analysis was performed using Image-J (NIH).

In the next series the test system is zebrafish embryos. The series is described as follows: Zebrafish embryo morphology and survival, stereomicroscope. The format is in vivo, zebrafish (Danio rerio).
From the text: Fish were then dechorionated, deyolked, lysed and HNEylated proteins were captured by Click coupling with biotin-azide and subsequent streptavidin pulldown (see workflow in FIG. 4A, Clicking with biotin-azide). HNEylation of Ube2V2 in fish also led to polyubiquitination of Ube2V2, indicating mechanistic conservation between fish and humans, and functional relevance of this electrophile regulatory pathway in vivo. Also see FIG. 14C. […] After 36-h fish were dechorionated and imaged using a stereomicroscope. Scale bars, 545 μm.
as §1, with “Embryos were left for 8 h at which point they were euthanized, washed with cold 1×DPBS and dechorionated (and deyolked if protein analysis was to be undertaken).” left out

For a further series, the system named is Ube2N. Kind of series: Lentiviral shRNA knockdown of Ube2N, western blot. The series is classed as cell-based, human. The protocol: HEK293T packaging cells were seeded and grown overnight in antibiotic free media in 6 well plates. At 80% confluence, each well was transfected with packaging plasmid (pCMV-R8.74psPAX2, 500 ng), envelope plasmid (pCMV-VSV-G, 50 ng) and pLKO vector (500 ng) using TransIT.LT1 as per the manufacturer's protocol. After 18 h, media were removed and replaced with 20% serum containing media. After 24 h, media containing viruses were collected, spun down and passed through a 0.6 micron filter and stored at −80° C. or used directly.
Cells in log phase were treated with 0.6 ml of virus supernatant (from above) in 8 μg/ml polybrene in a total of 6 ml of media in a 6-well plate. After 24 h, media were removed and replaced with media containing 2 μg/ml puromycin (which was completely toxic to all lines used in this study). Cells were cultured until the plate was confluent, then cells were split and moved to a 10 cm dish in 2 μg/ml puromycin containing media and grown again until reaching confluence. At this, the line was considered to be “selected”, and target gene expression was analyzed by western blot and compared to shRNA controls. […]
Cells were lysed in 1×RIPA buffer containing in final concentrations 1× Protease inhibitor, 1 mM sodium orthovanadate and 1 mM PMSF, by rapid freeze-thaw (×3). […] Protein concentration was determined using Bradford assay. […]

Where a SMILES comes first, the peptide text is derived from it. The star is where a group is joined. Cbz = O=C(OCc1ccccc1)*

T1 sequence (P60484 whole entry): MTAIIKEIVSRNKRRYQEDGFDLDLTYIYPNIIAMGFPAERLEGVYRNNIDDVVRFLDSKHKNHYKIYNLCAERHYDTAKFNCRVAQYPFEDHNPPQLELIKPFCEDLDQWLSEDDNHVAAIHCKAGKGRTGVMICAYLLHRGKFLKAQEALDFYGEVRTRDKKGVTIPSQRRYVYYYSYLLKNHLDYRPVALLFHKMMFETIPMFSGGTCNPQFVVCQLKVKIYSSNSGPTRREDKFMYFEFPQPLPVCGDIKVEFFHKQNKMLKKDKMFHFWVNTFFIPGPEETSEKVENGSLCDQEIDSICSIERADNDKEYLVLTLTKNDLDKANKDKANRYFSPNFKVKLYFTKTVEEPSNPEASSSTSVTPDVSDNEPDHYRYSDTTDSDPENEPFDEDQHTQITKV

In the case of `C#CCCCC(O)C=CC=O` (stereo not drawn) [HNE(alkyne), 4-hydroxynonenal alkyne], the stability entry in series [1] is “highly unstable to air-oxidation and polymerization”.
Consider `C#CCCCC(O)/C=C/COc1c(CC(=O)NCCOCCOCCCCCCCl)ccc2c1C(=O)c1ccccc1C2=O` (stereo not drawn) [Ht-PreHNE], for which the “γ-H2AX levels in zebrafish embryos” value in the series with γ-H2AX [2] is “regulates γ-H2AX levels in zebrafish”. Also, on PTEN (T-REX on Halo-PTEN vs light alone), the FRET signal result is recorded as “selectively enhances FRET signal”. Further, the “YFP:CFP emission ratio” value on PTEN (precursor treatment alone, no light) is “did not perturb the emission ratio significantly”.
On to `CC(C)C[C@@H](C=O)NC(=O)[C@H](CC(C)C)NC(=O)[C@H](CC(C)C)NC(=O)OCc1ccccc1` [MG132] (Cbz-Leu-Leu-Leu-aldehyde), for which the “pan cellular poly-Ub-pools” value in series [3] (HEK293T) is “elevated pan-Ub-pools”. For the same compound, in series [3], the “amount of ubiquitinated-Ube2V2 formed upon targeted-HNEylation” value is recorded as “had no effect on the amount of ubiquitinated-Ube2V2”.
As to `CO[C@@]12[C@H](COC(N)=O)C3=C(C(=O)C(C)=C(N)C3=O)N1C[C@@H]1N[C@@H]12` [Mitomycin-C], the “γ-H2AX in Ube2V2-C69S-expressing and Ube2N-deficient cells” value in the series on γ-H2AX [4] is “still upregulated γ-H2AX”. For the same compound, the γ-H2AX upregulation with γ-H2AX [4] (positive control) is recorded as 3-4 fold. For the same compound, the “γ-H2AX levels in zebrafish embryos” value in the series on γ-H2AX [2] is on record as “high level of γ-H2AX-expression relative to untreated fish”. In the series on zebrafish embryos, the “embryo deformity / death” value is on record as “severely deformed or died during treatment”.
As for `N#CSc1cc(SC#N)c(N)nc1N` [PR-619], in series [3] (HEK293T), the “K63-linked total cellular Ub pools” value is on record as “promoted elevation of K63-ubiquitination” and the “ubiquitination of Ube2V2 wt vs C69S” value is on record as “promote ubiquitination of Ube2V2(C69S) as efficiently as wt-Ube2V2”.
With `CC(C)C[C@H](NC(=O)[C@H](Cc1ccccc1)NC(=O)c1cnccn1)B(O)O` [bortezomib], in series [3] (HEK293T), the “pan cellular poly-Ub-pools” value is “elevated pan-Ub-pools”. Further, the “amount of ubiquitinated-Ube2V2 formed upon targeted-HNEylation” value in series [3] is on record as “had no effect on the amount of ubiquitinated-Ube2V2”.
With “#18: shRNA targeting Ube2N in pLKO1 vector (SEQ ID NO: 65) (CCGGGCTGAGGCATTTGTGAGTCTTCTCGAGAAGACTCACAAATGCCTCAGCTTTTT)”, the Ube2N knockdown strength result in the series on Ube2N is given as “weaker knockdown”.

For the origin of these results see patent publication US11506670B2, “Method of genome-wide direct identification of electrophile-sensing targets” (Cornell University, priority 2018, dated 2022).
